For data set [1], the system named is TiP-induced osteolysis on mouse calvaria. Briefly: TiP-induced osteolysis, mouse calvarial model (µCT). The data set is classed as in vivo.
The subject of another data set is neuroprotection. The conditions noted are these: ref Ashur-Fabian et al., 1999; cited from earlier work. From the text: (§1) VIP derivatives and conjugates were designed to include a lipophilic moiety or a shortened VIP chain ([Gozes and Fridkin, 1992]; [Gozes et al., 1994]; [Gozes et al., 1995]; [Gozes et al., 1996]; [Gozes et al., 1999]). Stearyl-norleucine-VIP (Stearyl-Nle^17VIP, SNV) is a lipophilic compound consisting of a VIP molecule with an N-terminal attachment of stearic acid to increase cell and tissue bioavailability and an exchange of the oxidation-vulnerable methionine at position 17 with the stable norleucine.

For data set [2] the following is noted: matrix not given, ref Gozes et al., 1994, 1996; cited from earlier work.
Excerpt: as §1

Data set [3] relates to M-CSF + RANKL treated pre-osteoclasts. Nature of the data set: Osteoclastogenesis assay, direct effect in the absence of inflammation (TRAP staining). The data set is classed as cell-based, mouse. The conditions noted are these: 10^-6 M, no inflammation, TRAP-positive multinucleated osteoclasts after 5 days, n=5, p<0.01. Here is the method:
(§2) Osteoclastogenesis assay. Preosteoclasts, prepared like the BMDMs, were plated in 96-well plates (7,000 cells per well, for TRAP staining, see below) or in 6-well plates (200,000 cells per well, for RNA) in standard medium supplemented with 20 ng/ml M-CSF and 50 ng/ml RANKL (R&D Systems, Minneapolis, MN, United States). After 48 h, the medium was replaced by the conditioned medium of BMDM, supplemented with RANKL and M-CSF. Where indicated, 10^−6 M SNV or VIP were added. […], cells were stained using a TRAP kit (Sigma-Aldrich, St. Louis, MO, United States), and multinucleated (>3 nuclei) TRAP-positive cells were defined as osteoclasts. Images were acquired at an original magnification of ×4 (Evos FLC, Life Technologies, MS, United States). The number of osteoclasts and the total osteoclast area were measured using ImageJ software (National Institutes of Health, Bethesda, MD, United States).
FIGURE 3 Direct effect of VIP and SNV on osteoclastogenesis. (A) VPAC1 and (B) VPAC2 expression in M-CSF treated bone marrow-derived macrophages (Day 0) and M-CSF + RANKL treated pre-osteoclasts (Day 2) using RT-qPCR. […] (C-E) Osteoclastogenesis in the presence of 10^-6M VIP, SNV or vehicle only (control) performed in 96-well plates; TRAP-positive multinucleated osteoclasts were evaluated after 5 days of differentiation. […]

The subject of data set [4] is Primary murine preosteoclasts. Briefly: Osteoclastogenesis assay with conditioned medium from TiP-exposed macrophages (TRAP staining). The data set is classed as cell-based, mouse. The settings on record: 10^-6 M, conditioned medium of TiP-exposed macrophages. Here is the method:
as §2
FIGURE 4 VIP and SNV alleviate the osteoclastogenic effect of TiP-induced inflammation. (A) Primary BMDM were exposed to TiP and RNA was collected after 24 h. mRNA expression are presented as Mean±SD fold change versus Control. * p<0.05 vs. Control. (B-D) Primary murine preosteoclasts were cultured in 20 ng/ml M-CSF and 50 ng/ml RANKL for 48 h. Conditioned medium from macrophages (Control) and macrophages exposed to Ti particles (Ti, as in A) was then added together with 10^-6M of VIP or SNV (or saline) for 48 h before TRAP staining. Data are Mean±SD for osteoclast % surface area (B) and number per well (C). (D) Representative images all acquired at a 4x original magnification. The scale bar for all images is in the upper left panel. n=8, #p<0.05 vs. Control; *p<0.05 vs. Ti, ANOVA. (E) Primary murine macrophages/preosteoclasts were cultured in 20 ng/ml M-CSF and Ti particles, 10^-6M of VIP or SNV, or saline only. MTT viability assay was performed after 1, 3 and 5 days and presented as optical density values. N=5, no statistical differences were found between the treatment groups. Data are Mean±SD in arbitrary OD units.

Data set [5] deals with histidine auxotrophs of Salmonella typhimurium. Briefly: Study 005 mutagenic potential (Ames test). Type of data set: cell-based. Here is the method: Although, the studies were not carried out under Good Laboratory Practices (GLP) stipulations, SNV was synthesized under GLP conditions, and all the work was carried out at Tel Aviv University under meticulous conditions using professional staff and established methods (in a designated air-conditioned, clean room and specific luminary flow hood), which all strengthen the trustworthiness of the study results. Ames tests were carried out by Life Science Research Israel Ltd. Ness Ziona, Israel.
(In the Ames test, an excess of revertant colonies over the control signals mutagenicity.)

Data set [6] can be described thus: Rat model of transepithelial penetrability (vaginal delivery of 125I-SNV, organ radioactivity). Type of data set: in vivo. The settings on record: 125I-labelled SNV. The text has this: Rat model of transepithelial penetrability. Because of the high hydrophobicity of SNV, we employed an iodination labeling protocol based on the Chloramine T method ([Markwell, 1982]) using 1 mCi Na^125I with a few modifications that included 1) the dissolution of SNV in dimethylformamide (DMF), 2) replacement of the phosphate buffer with 0.2 M HEPES (pH = 7.6), a more compatible buffer, and 3) reaction termination by the addition of sodium metabisulfite and KI. The pharmacokinetic profile of ^125I-SNV absorption and distribution was evaluated following vaginal delivery of the compound to rats. Wistar rats at the estrus phase received 50 µl (7.0 µCi/rat, 15 million CPM, 100 Ci/mM specific activity) of ^125I-SNV dissolved in 5% Sefsol, applied directly in the vagina, using a P100 micro pipettor. At the indicated time points, we anesthetized the rats with chloral hydrate and collected blood before cervical dislocation. We then harvested the uterus, liver, lungs, heart, intestine, kidneys and vagina (duplicate samples were taken from each organ). Organs were weighed and radioactivity levels were measured using a gamma counter. Each point on the chart represents at least two rats.
7.0 microCi/rat (15 million CPM, 100 Ci/mmole specific activity) of radioactive SNV was delivered in the vagina of rats at T0. Each point on the chart represents at least two rats. Levels of radioactivity were monitored over 250 min to assess the remaining amount of SNV in the vagina (A) versus its distribution in the indicated organs (B) as a measure of its penetrability through the vaginal epithelium. Data are Mean ± SD.

[7] abbreviates: 20 ng/ml M-CSF + 50 ng/ml RANKL, TRAP staining, n=8, vs Ti.
The mark [8] stands for this setting: 7.0 µCi/rat in 5% Sefsol, vaginal delivery, Wistar rats at estrus, monitored over 250 min, gamma counter, at least two rats per point.

On to “Stearyl–HSDAVFTDNYTRLRKQ-Nle-AVKKYLNSILN-NH2 [SNV, Stearyl-norleucine-VIP, lipophilic VIP derivative with N-terminal stearic acid and norleucine in place of methionine at position 17]”, for which the Calvaria thickness result in data set [1] (2 × 10^–8 mol SNV in fibrinogen-thrombin membrane with TiP, 5 weeks, µCT) was “no significant differences”. Also, in data set [1] (mouse, in vivo), the “Lowering of pit resorption volume (PRV) vs Ti” value is recorded as 60% and the “Lowering of pit resorption volume as percentage of the total tissue volume (PRV/TV) vs Ti” value is reported as 60%. For the same substance, the “Potency relative to VIP in neuroprotection” value in the data set with neuroprotection was 1000 fold. The Half-life in data set [2] is reported as 15 min. For the same substance, the “Osteoclast differentiation (osteoclast number and total area)” value in data set [3] is given as “comparable inhibitory effect”. For the same substance, the “Inhibitory effect on osteoclasts compared with VIP” value in data set [4] is given as “stronger inhibitory effect on osteoclasts than VIP”. For the same substance, in data set [4] (setting [7]), the Osteoclast area result is “attenuated” and the Osteoclast number entry is recorded as “attenuated”. In data set [5] (0.3 to 312.5 µg/plate), the “Revertant colony numbers over control” value is listed as “No significant increases in revertant colony numbers over control with test material at doses ranging from 0.3 to 312.5 µg/plate”. Moreover, the “Mutagenic activity, conclusion” value in data set [5] (0.3–312.5 µg/standard bacterial plate) is listed as “Under the conditions of this study, the test material, SNV was devoid of mutagenic activity”. Also, in data set [6] (setting [8]), the “Levels of SNV in the blood, heart, lungs, liver, gut, uterus and kidneys (radioactivity)” value is “steadily increased”; the “Local levels of SNV in the vagina (radioactivity)” value is on record as “decline over time”. Besides, the “Penetrability through the vaginal epithelium” value in data set [6] (vaginal delivery in rats, over 250 min) is listed as “high penetrability”.
